Test results taken from patent US20260364076A1 (Amgen Inc., priority 2022, published 2026).
Like-named read-outs stand apart in the source and are kept apart here.

Tests used:
[1] = tested on: cancer with the KRAS G12C mutation; details: cited from earlier work
KRAS p.G12C tumors = details: mice bearing KRAS p.G12C tumors; cited from earlier work
[2] = tested on: extracellular signal-regulated kinase (ERK); details: preclinical studies; cited from earlier work
[3] = Drug-drug interaction study with rifampin (CYP3A4 inducer): sotorasib plasma PK in healthy subjects; assay type: in vivo, human; details: for Cmax / AUC(0-inf) / AUC(0-t): human, plasma, 960 mg; for AUC(0-inf): read-out: AUCinf (GLSM); for AUC(0-t): read-out: AUClast (GLSM)
Experimental: (§1) Safety and tolerability monitoring were performed throughout the study.

[4] = Single-dose PK study in subjects with moderate or severe hepatic impairment compared to healthy subjects; assay type: in vivo, human
Experimental: (§2) This Example describes an open-label single-dose study of sotorasib that was conducted in healthy subjects and subjects with moderate or severe hepatic impairment (see, Inclusion/Exclusion criteria):
(§3) The primary objective of the study was to evaluate the pharmacokinetics (PK) of a single oral dose of sotorasib administered in subjects with moderate or severe hepatic impairment compared to subjects with normal hepatic function. The secondary objective of the study was to evaluate the safety and tolerability of sotorasib administered in subjects with moderate or severe hepatic impairment compared to subjects with normal hepatic function.
(§4) Subjects meeting eligibility requirements were assigned to 1 of 3 groups: Group 1—Normal function (No impairment, n=6-12); Group 2—Moderate impairment (Child-Pugh Class B, n=6-8); Group 3—Severe impairment (Child-Pugh Class C, n=6-8). The classification is based on Child-Pugh scores as per Figg et al. (1995).
The plasma PK parameters of sotorasib will be calculated using standard noncompartmental methods.
The data from hepatically impaired subjects (Group 2 and 3; tests) and control subjects (normal hepatic function [Group 1]; reference) will be included in the analysis. Geometric mean ratios (Test/Reference) for Cmax and AUC values and associated 90% confidence intervals will be estimated.
Additional parameters may be calculated, and sotorasib metabolites may be analyzed. PK parameters for the metabolites, if calculated, will not be subject to inferential statistical analysis. Specific details will be presented in the Statistical Analysis Plan for this study.

[5] = Safety and tolerability in single-dose hepatic impairment study; assay type: in vivo, human
Experimental: as §2, §3, §4

CYP3A = details: hepatic; cited from earlier work
[6] = in vivo; cited from earlier work
[7] = tested on: cells and tumors harboring KRAS G12C mutations; details: cited from earlier work
KRAS^G12C = details: cited from earlier work
[8] = Drug-drug interaction study with itraconazole (CYP3A4 inhibitor): sotorasib plasma PK in healthy subjects; details: human, in vivo, po, 360 mg; for AUC(0-inf): AUCinf (GLSM); for AUC(0-t): AUClast (GLSM)
Experimental: as §1

[9] = 960 mg sotorasib + 600 mg rifampin on day 3 (Test), single-dose rifampin
[10] = 960 mg sotorasib + 600 mg rifampin on day 18 (Test), multiple daily dosing of rifampin
[11] = 960 mg sotorasib on day 1 (Reference), healthy subjects
[12] = 360 mg sotorasib + 200 mg itraconazole (Test), day 6, healthy subjects
[13] = 360 mg sotorasib alone (Reference), day 1, single oral dose, healthy subjects

Cmax [3, 9]: 5340 ng/mL
AUC(0-inf) [3, 9]: 19600 ng·h/mL
AUC(0-t) [3, 9]: 19400 ng·h/mL
Cmax [3, 10]: 4110 ng/mL
AUC(0-inf) [3, 10]: 12400 ng·h/mL
AUC(0-t) [3, 10]: 12300 ng·h/mL
AUC(0-inf) [3, 11]: 25600 ng·h/mL
AUC(0-t) [3, 11]: 25400 ng·h/mL
half-life ([4]; human, in vivo, po, 960 mg, read-out: half-life (t1/2), arithmetic mean): 6.42 to 8.18 h
Tmax ([4]; human, in vivo, po, 960 mg, read-out: median tmax): 1 to 1.47 h
Cmax [8]: 6130 ng/mL
Tmax [8]: 0.51 h
AUC(0-inf) [8, 12]: 31000 ng·h/mL
AUC(0-inf) [8, 13]: 24600 ng·h/mL
AUC(0-t) [8, 12]: 30700 ng·h/mL
AUC(0-t) [8, 13]: 22700 ng·h/mL
SMILES: C=CC(=O)N1CCN(c2nc(=O)n(-c3c(C)ccnc3C(C)C)c3nc(-c4c(O)cccc4F)c(F)cc23)[C@@H](C)C1 (atropisomer, axis not shown; (M)) [Sotorasib, 6-fluoro-7-(2-fluoro-6-hydroxyphenyl)-(1M)-1-[4-methyl-2-(propan-2-yl)pyridin-3-yl]-4-[(2S)-2-methyl-4-(prop-2-enoyl)piperazin-1-yl]pyrido[2,3-d]pyrimidin-2(1H)-one]
tumor response ([1]; NSCLC, colorectal, pancreatic, appendiceal, endometrial, unknown primary, ampullary, gastric, small bowel, sinonasal, bile duct cancer, or melanoma): stable disease (SD) or partial response (PR)
disease control rate (95% CI) ([1]; colorectal cancer, 42 patients): 73.8%
disease control rate (95% CI) ([1]; non-small cell lung cancer, 59 patients): 88.1%
disease control rate (95% CI) ([1]; other tumor types, 28 patients): 75.0%
tumor regression (KRAS p.G12C tumors): durable complete tumor regression
inhibition of phosphorylation of ERK [2]: inhibited nearly all detectable phosphorylation
Geometric mean exposures, based on AUC and Cmax ([3]; following coadministration with rifampin on days 3 and 18): lower following coadministration with rifampin on days 3 and 18
PK and safety profile ([4]; moderate or severe hepatic impairment vs healthy subjects): clinically sufficiently similar to the PK and safety profile of healthy subjects
half-life (t1/2), trend across hepatic function groups ([4]; normal, moderate or severe hepatic impairment, 960 mg sotorasib): no apparent trend related to hepatic impairment
findings in clinical laboratory evaluations, physical examinations, ECGs, and vital signs ([5]; 960 mg sotorasib single dose): no clinically meaningful findings
serious adverse events or treatment-emergent adverse events leading to discontinuation ([5]; 960 mg sotorasib single dose): no serious adverse events or treatment-emergent adverse events leading to discontinuation
adverse event severity ([5]; all adverse events, 960 mg sotorasib): mild in severity
resolution of adverse events ([5]; by end of study): All the adverse events resolved by the end of study
treatment-emergent adverse events considered related to sotorasib ([5]; number of events, 20 subjects, Investigator assessment): 5
treatment-emergent adverse events ([5]; number of events, 20 subjects, single dose 960 mg sotorasib): 9
safety and tolerability ([5]; single doses, normal hepatic function, moderate or severe hepatic impairment): safe and well-tolerated
metabolizing enzyme (CYP3A): mainly metabolized by the hepatic enzymes CYP3A
route of elimination [6]: mainly eliminated via the fecal route
growth and regression of cells and tumors [7]: inhibition of growth and regression of cells and tumors harboring KRAS G12C mutations
inhibition of KRAS^G12C (KRAS^G12C): specifically and irreversibly inhibits
